Measurements as given in PubChem BioAssay (NCI).
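Grown in 96-well plates, cells were treated for 48 hours with each compound at five concentrations. Insufficient inhibition: endpoint recorded as highest concentration tested. At the TGI there is no net growth.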

Assays:
Experiment in all cases: inhibition of tumour cell growth, NCI panel, 48 h
U251 CNS = system: U251 CNS
CCRF-CEM leukemia = system: CCRF-CEM leukemia
KM12 colon = system: KM12 colon
RPMI-8226 leukemia = system: RPMI-8226 leukemia
NCI-H226 lung = system: NCI-H226 lung
ACHN renal = system: ACHN renal
786-0 renal = system: 786-0 renal
HT29 colon = system: HT29 colon
LOX IMVI melanoma = system: LOX IMVI melanoma
A498 renal = system: A498 renal
NCI-H522 lung = system: NCI-H522 lung

SMILES | TGI (U251 CNS) [µM] | TGI (CCRF-CEM leukemia) [µM] | TGI (KM12 colon) [µM] | TGI (RPMI-8226 leukemia) [µM] | TGI (NCI-H226 lung) [µM] | TGI (ACHN renal) [µM] | TGI (786-0 renal) [µM] | TGI (HT29 colon) [µM] | TGI (LOX IMVI melanoma) [µM] | TGI (A498 renal) [µM] | TGI (NCI-H522 lung) [µM]
CCC(C)[C@@H](NCc1ccccc1)[C@H](OCc1ccccc1)[C@@H]1COC(C)(C)O1 (stereo not given in full) | 51.1 | 60.9 | 44.3 | 36.1 | 30.6 | 49.7 | 46.3 | 23.7 | 38 | – | –
C1=C\SS/C=C\SS/C=C\SS/C=C\SS/1 | > 100 | 61.9 | > 100 | > 100 | > 100 | > 100 | > 100 | > 100 | > 100 | > 100 | 84.4
O=C(O)CCCl | > 5000 | > 5000 | > 5000 | > 5000 | > 5000 | > 5000 | > 5000 | > 5000 | > 5000 | – | > 5000
CCOC(=O)c1cnc(-n2[nH]c(C)c(CCO)c2=O)[nH]c1=O | > 100 | > 100 | > 100 | > 100 | > 100 | > 100 | > 100 | > 100 | > 100 | – | –
C1CC2=C(C1)[Se]C(=C1Sc3nsnc3S1)[Se]2 | > 100 | > 100 | > 100 | > 100 | > 100 | > 100 | > 100 | > 100 | > 100 | – | > 100
CC(=O)NC1C(OCc2ccccc2)OC(CO)C(O)C1OCC(=O)NC(C)C(=O)NC(CCC(=O)NCCCCNc1ccc([N+](=O)[O-])c2[nH]c3ccccc3c(=O)c12)C(N)=O (stereo not given) | > 100 | – | > 100 | – | > 100 | > 100 | > 100 | > 100 | > 100 | > 100 | –
O=C(CP(c1ccccc1)c1ccccc1)c1cccc(C(=O)CP(c2ccccc2)c2ccccc2)c1 | > 100 | > 100 | > 100 | 67.4 | > 100 | > 100 | > 100 | > 100 | – | – | –
Cc1ccc(C2CC(=O)CC(c3ccc(C)cc3)C23C(=O)NC(=O)NC3=O)cc1 (stereo not given) | > 100 | > 100 | > 100 | > 100 | > 100 | > 100 | > 100 | > 100 | > 100 | – | > 100
O=c1cc(CNC2CCCC2)[nH]c(=O)[nH]1 | > 100 | > 100 | > 100 | > 100 | – | > 100 | > 100 | > 100 | > 100 | > 100 | > 100
O=c1c2ccccc2oc2nc3n(c(=O)c12)CCCS3 | > 100 | > 100 | > 100 | > 100 | > 100 | > 100 | > 100 | – | > 100 | > 100 | > 100
[O-]/[N+](=C\c1ccccc1)[C@H](COCc1ccccc1)c1ccccc1 | > 100 | > 100 | > 100 | > 100 | – | > 100 | > 100 | > 100 | > 100 | > 100 | > 100
CCC(C)[C@H](NC(=O)[C@H](Cc1ccccc1)NC(=O)N(CC)c1ccccc1)C(=O)N[C@@H](CC(C)C)C(=O)OC (stereo not given in full) | > 100 | 66.7 | 61.3 | 38 | 46.2 | 72.7 | > 100 | – | > 100 | > 100 | –
COc1ccc(/C=C2\CN(C)Cc3c2nc(N)nc3-c2ccc(OC)cc2)cc1 | > 100 | > 100 | > 100 | > 100 | > 100 | > 100 | > 100 | – | > 100 | > 100 | > 100
COc1c2c(c3c(c1C1OC(C)[C@@H](C)O1)CC(C)(C)O3)C(=O)c1ccccc1C2=O (stereo not given in full) | > 100 | 53.2 | > 100 | 52.2 | > 100 | > 100 | > 100 | > 100 | 28.6 | – | –
CC1(C)O[C@H]2Cn3c(c(C#N)c4ccccc43)[C@H]2O1 | > 100 | – | > 100 | > 100 | – | > 100 | > 100 | > 100 | – | – | > 100
c1csc(-c2ccc(-c3ccc(-c4ccc(-c5cccs5)s4)s3)s2)c1 | > 100 | 53.8 | – | > 100 | > 100 | > 100 | > 100 | > 100 | – | > 100 | –
CCOC(=O)c1cn(-c2ccccc2)c(=S)n2c1nc1ccccc12 | > 100 | 65.3 | > 100 | > 100 | > 88.1 | > 100 | > 100 | > 90.8 | > 100 | > 100 | –
COc1ccc(-c2nc(N)c(C#N)c3c2CCS(=O)(=O)c2ccc(C)cc2-3)cc1OC | > 100 | – | 52.3 | – | > 100 | > 100 | > 100 | 92.2 | > 100 | 62.5 | 25.1
CO/C(=N\N=C\c1cc(OC)ccc1OC)c1ccncc1 | > 10 | > 10 | > 10 | > 10 | > 10 | > 10 | > 10 | – | > 10 | > 10 | –
CC1=NN(C(=O)CSc2nnc(SCC(=O)N3N=C(C)CC3(O)c3ccccc3)s2)C(O)(c2ccccc2)C1 (stereo not given) | > 100 | > 100 | 93.2 | > 100 | – | > 100 | > 100 | – | > 100 | > 100 | > 100
CC[C@@]1(O)C(=O)OCc2c1cc1n(c2=O)Cc2c-1nc1ccccc1c2/C=N\NC(=O)C(N)CC(C)C (stereo not given in full) | 0.646 | 0.629 | – | 3.71 | 0.975 | – | > 100 | > 100 | 0.244 | 0.263 | 1.6
O=C(c1ccccc1)c1ccc2c(c1)nc1n2C(c2c(Cl)cccc2Cl)SC1 (stereo not given) | > 100 | – | > 100 | > 100 | > 100 | > 100 | > 100 | > 100 | > 100 | > 100 | > 100
C/C=C/[C@@]1(OC(=O)c2ccccc2)C[C@@H]2CCCC[C@@H]21 | 29.8 | 45.4 | 32.9 | 38.5 | 30.9 | 31.5 | 31.8 | 31.7 | 44.7 | – | 29.9

SMILES | TGI (U251 CNS) [µM] | TGI (CCRF-CEM leukemia) [µM] | TGI (KM12 colon) [µM] | TGI (RPMI-8226 leukemia) [µM] | TGI (NCI-H226 lung) [µM] | TGI (ACHN renal) [µM] | TGI (786-0 renal) [µM] | TGI (HT29 colon) [µM] | TGI (LOX IMVI melanoma) [µM] | TGI (A498 renal) [µM] | TGI (NCI-H522 lung) [µM]
Nc1nc2c(=O)c3ccccc3sc2s1 | > 100 | > 100 | > 100 | > 100 | 79.1 | > 100 | > 100 | > 100 | > 100 | > 100 | –
O=C1c2ccccc2C(=O)N1n1c(Cc2ccccc2)n[nH]c1=O | > 100 | > 100 | > 100 | – | > 100 | > 100 | > 100 | > 100 | > 100 | > 100 | –
CC[n+]1cnc(N)c2c(-c3ccc(Cl)cc3)cn(-c3ccc(C)cc3)c21 | 24.3 | 22.7 | 30.7 | – | 28.2 | 25.6 | 23.5 | 17.7 | 25.9 | 24 | 31.2
CCOC(=O)CCCn1nnc(C(=O)OCC)c1C(=O)OCC | > 100 | > 100 | > 100 | – | > 100 | > 100 | > 100 | > 100 | > 100 | – | –
Nc1nc(N)c2ncn(CC3CCC(CO)C3)c2n1 (stereo not given) | > 100 | > 100 | > 100 | > 100 | > 100 | > 100 | > 100 | – | > 100 | > 100 | –
O=C(O)c1ccccc1.[Ag] | 35.4 | – | 47.3 | > 23.5 | > 100 | 19.1 | 32.7 | 43.7 | > 66.6 | 36.8 | –
CCOC(=O)c1ccc(N=NN(C)C(=O)C(C)N)cc1 (stereo not given) | > 100 | > 100 | > 100 | > 100 | > 100 | > 100 | > 100 | > 100 | > 100 | – | > 100
CC12CC3C(CC1SCC(=O)O2)C3(C)C (stereo not given) | > 100 | > 100 | > 100 | > 100 | – | > 100 | > 100 | > 100 | – | > 100 | –
COC(=O)c1cn(CCCC(=O)O)nn1 | > 100 | > 100 | > 100 | – | > 100 | > 100 | > 100 | > 100 | > 100 | – | –
O=C(CSc1nnc(-c2ccc(N=Cc3ccc(Cl)cc3)cc2)o1)Nc1ccccc1Cl | > 100 | > 100 | > 100 | > 100 | > 100 | > 100 | > 100 | > 100 | > 100 | – | > 100
COCOc1ccc(C(=O)C(C)c2ccc(OCOC)cc2OCOC)c(O)c1 (stereo not given) | > 100 | > 100 | – | > 100 | – | > 100 | > 100 | > 100 | – | > 100 | > 100
C1=C(c2ccccc2)CN(c2ccccc2)OC1 | > 100 | > 100 | > 100 | > 100 | > 100 | > 100 | > 100 | > 100 | > 100 | – | > 100
C=CCNC(=S)Nc1sc2c(c1C(=O)OCC)CC(C)CC2 (stereo not given) | > 100 | – | > 100 | 68.6 | 50.7 | 53.6 | > 100 | 47.1 | > 100 | – | 46.4
O=C1N[C@H]2c3c(Cl)sc(Cl)c3/C(=N/O)[C@H]2O1 | > 100 | > 100 | > 100 | > 100 | – | > 100 | > 100 | > 100 | – | > 100 | –
O=C(CSCC(=O)N/N=C/c1cc(I)cc(I)c1O)N/N=C/c1cc(I)cc(I)c1O | 26.2 | – | 88.2 | 61.5 | 41.1 | 32.2 | 22.2 | > 100 | – | 27.9 | 35
COc1ccc2oc(=N)c(C(=O)Nc3cccc4ccccc34)cc2c1 | 50.2 | > 100 | > 100 | 57.9 | > 100 | > 100 | 28 | > 100 | – | 39.2 | –
COc1cc(/C=C/C(=O)OCC23CC[C@@]4(C(=O)O)CCC(C)[C@H](C)C4C2=CCC2[C@@]4(C)CC[C@H](O)C(C)(C)C4CC[C@]23C)ccc1O (stereo not given in full) | 76.1 | 22.3 | > 100 | – | 71.8 | 8.24 | 31.7 | 42 | 34.2 | 68.5 | 31.2
Cc1[nH]c2ncn(/N=C/c3ccccc3O)c(=N)c2c1Cc1ccccc1 | 41.2 | > 100 | > 100 | > 100 | > 100 | > 100 | > 100 | > 100 | > 100 | > 100 | –
Clc1ccc2c(SCC3CO3)c3ccccc3nc2c1 (stereo not given) | – | 6.98 | – | 7.19 | > 100 | 4.55 | 3.44 | 3.23 | > 100 | 33.9 | 5.64
COc1cc(/C=C2/SC(c3ccccc3)N(c3ccc(NC(C)=O)cc3)C2=O)cc(OC)c1OC (stereo not given) | > 100 | – | > 100 | > 100 | > 100 | > 100 | > 100 | > 100 | > 100 | > 100 | > 100
CN(C)CC(/C(Cc1ccccc1)=N\NC(=O)C[n+]1ccccc1)c1ccccc1 (stereo not given) | > 100 | > 100 | > 100 | – | > 100 | > 100 | > 100 | > 100 | – | > 100 | > 100
COc1ccc(Cn2c(C)nc3c2C(=O)c2ccccc2C3=O)cc1 | > 75 | 37.3 | 26.7 | – | 48.2 | 48.9 | 40 | > 75 | 11.2 | – | 15.5
